Experimental findings from US6596315B1, “Method of producing drug particles” (AstraZeneca AB, priority 1998, dated 2003) are described below.

The nature of this data set: HPLC determination of degradation products in particles after SEDS processing. In kind it is physicochemical. Here is the method: High-Perfomance Liquid Chromatography (HPLC)
Identification and quantification of degradation products were determined using HPLC technique.
The amount of degradation products was calculated from the chromatograms as area-%. Thus, 0.2% area-procent means that the amount of degradation products was 0.2% of the initial weight of the substance.
Particles were prepared in a modified SEDS equipment (Bradford Particle Design Limited, UK) from a solution, containing substance(s).
The solution and the antisolvent were introduced into a coaxial nozzle, which was located inside a pressure vessel. Under controlled pressure and temperature conditions, the antisolvent extracts the solvent from the solution droplets. The concentration of the solute in the droplets is thereby increased, leading to rapid particle formation. The particles were collected in a vessel, while the antisolvent and the extracted solvent emerged through a back pressure regulator.
The nozzle used was a two component nozzle, with an opening of 0.2 mm in diameter. In the two component nozzle the supercritical fluid passes through the inner passage, while the solution passes through the outer passage.
Turning to `COc1ccc2[n-]c([S@@+]([O-])Cc3ncc(C)c(OC)c3C)nc2c1.COc1ccc2[n-]c([S@@+]([O-])Cc3ncc(C)c(OC)c3C)nc2c1.[Mg+2]` [Experiment 2-1a, (S)-omeprazole magnesium], the Degradation products is recorded as 2.1 a % and the “degradation products (HPLC)” value is given as 2.1 area %.

As to `COc1ccc2[n-]c([S+]([O-])Cc3ncc(C)c(OC)c3C)nc2c1.COc1ccc2[n-]c([S+]([O-])Cc3ncc(C)c(OC)c3C)nc2c1.[Mg+2]` (stereo not shown) [Experiment 1-3b, Omeprazole magnesium], the Degradation products was 0.2 a % and the “degradation products (HPLC)” value is on record as 0.2 area %.

For the compound `COc1ccc2[n-]c([S+]([O-])Cc3ncc(C)c(OC)c3C)nc2c1.COc1ccc2[n-]c([S+]([O-])Cc3ncc(C)c(OC)c3C)nc2c1.[Mg+2]` (stereo not shown) [Experiment 1-1b, Omeprazole magnesium], the Degradation products is 0.2 a % and the “degradation products (HPLC)” value is on record as 0.2 area %.

Turning to `COc1ccc2[n-]c([S+]([O-])Cc3ncc(C)c(OC)c3C)nc2c1.COc1ccc2[n-]c([S+]([O-])Cc3ncc(C)c(OC)c3C)nc2c1.[Mg+2]` (stereo not shown) [Experiment 1-3a, Omeprazole magnesium], the Degradation products stood at 0.4 a % and the “degradation products (HPLC)” value was 0.4 area %.

Take `COc1ccc2[n-]c([S+]([O-])Cc3ncc(C)c(OC)c3C)nc2c1.COc1ccc2[n-]c([S+]([O-])Cc3ncc(C)c(OC)c3C)nc2c1.[Mg+2]` (stereo not shown) [Experiment 1-2b, Omeprazole magnesium]: the Degradation products is on record as 0.2 a % and the “degradation products (HPLC)” value was found to be 0.2 area %.

In the case of `COc1ccc2[n-]c([S+]([O-])Cc3ncc(C)c(OC)c3C)nc2c1.COc1ccc2[n-]c([S+]([O-])Cc3ncc(C)c(OC)c3C)nc2c1.[Mg+2]` (stereo not shown) [Experiment 1-1a, Omeprazole magnesium], the Degradation products came out at 0.5 a % and the “degradation products (HPLC)” value came out at 0.5 area %.

Regarding `COc1ccc2[n-]c([S+]([O-])Cc3ncc(C)c(OC)c3C)nc2c1.COc1ccc2[n-]c([S+]([O-])Cc3ncc(C)c(OC)c3C)nc2c1.[Mg+2]` (stereo not shown) [Experiment 1-4b, Omeprazole magnesium], the Degradation products was 0.1 a % and the “degradation products (HPLC)” value turned out to be 0.1 area %.

In the case of `COc1ccc2[n-]c([S@@+]([O-])Cc3ncc(C)c(OC)c3C)nc2c1.COc1ccc2[n-]c([S@@+]([O-])Cc3ncc(C)c(OC)c3C)nc2c1.[Mg+2]` [Experiment 2-1b, (S)-omeprazole magnesium], the Degradation products is 0.3 a % and the “degradation products (HPLC)” value worked out at 0.3 area %.
